Molecules are shown by their SMILES. The source made the active and inactive calls.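 The calls were made as follows: active = IC50 at or below 20 µM; inactive = the rest.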

Dual specificity protein phosphatase 3 (Homo sapiens), sequence (P51452 whole entry, looked up): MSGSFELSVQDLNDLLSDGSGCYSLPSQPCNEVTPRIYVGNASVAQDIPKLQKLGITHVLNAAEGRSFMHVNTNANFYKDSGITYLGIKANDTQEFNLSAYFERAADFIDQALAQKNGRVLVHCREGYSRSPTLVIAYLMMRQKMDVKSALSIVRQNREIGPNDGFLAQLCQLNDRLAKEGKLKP

This test addresses Dual specificity protein phosphatase 3 (Homo sapiens) (UniProt P51452). Nature of the test: VHR-1 phosphatase inhibitors, dose response, selectivity assay for LMPTP inhibitor project, biochemical, fluorescence, OMFP substrate (AID 686961). Conditions: recombinant VHR-1 enzyme, OMFP fluorogenic substrate, 50 min.
On to `O=C1C(=Cc2cn(-c3ccccc3)nc2-c2ccc(OCc3ccccc3)cc2)SC(=S)N1CCS(=O)(=O)O`, for which the 50% inhibitory concentration (IC50) is 0.55 µM.

Regarding `Cc1ccccc1Nc1cc(C)c2c(O)cccc2n1`, the IC50 was > 80 µM (inactive).

Regarding `Clc1cccc(Cl)c1Cn1cnc(=NCc2ccco2)c2[nH]cnc21`, the IC50 result was “inactive”.

Regarding `c1ccc(-c2nc(NCCCN3CCOCC3)c3ccccc3n2)cc1`, the IC50 is > 80 µM (inactive).

For the molecule `COc1cccc(N2CCN(C(=O)c3ccc(CSc4nc5ccncc5[nH]4)cc3)CC2)c1`, the IC50 was 12.4 µM.

Take `CCc1nc(N)nc(N)c1-c1ccc(Cl)c(N=[N+]=[N-])c1`: the IC50 entry was “inactive”.

In the case of `CC(C)Oc1ccc(-c2nc(NCC3CCCO3)c3ccccc3n2)cc1` (stereo unspecified), the IC50 entry is “inactive”.

Take `COc1ccccc1CNc1nc(NCc2cnc(C)cn2)c2sccc2n1`: the IC50 result is “inactive”.

Regarding `c1ccc(-c2nc(NCCCn3ccnc3)c3ccccc3n2)cc1`, the IC50 is > 80 µM (inactive).

On to `c1ccc(-c2nc(NCc3cccnc3)c3ccccc3n2)cc1`, for which the IC50 is > 80 µM (inactive).

With `CC(=O)Nc1ccc(CNc2nc(NCc3cccs3)nc3ccsc23)cc1`, the 50% inhibitory concentration (IC50) is 9.27 µM.

For the molecule `Fc1ccccc1-c1nc(NCCCN2CCOCC2)c2ccccc2n1`, the IC50 was > 80 µM (inactive).

As to `Cc1ccc(-c2nc(NCCN3CCOCC3)c3ccccc3n2)cc1`, the IC50 was > 80 µM (inactive).

On to `Cc1[nH]ccc(=O)c1Cc1c(Cl)cccc1Cl`, for which the IC50 was > 80 µM (inactive).

In the case of `O=C(N/N=C/c1cccc(Br)c1)c1ccc(Br)cc1`, the half-inhibitory concentration (IC50) is 11.1 µM.

With `Cc1[nH]ccc2cc3nc4ccccc4c3cc12`, the half-maximal inhibitory concentration (IC50) was 17.6 µM.

For `O=C(CCN1C(=O)/C(=C/c2ccc3c(c2)OCO3)SC1=S)Nc1ccc(C(=O)O)cc1`, the concentration for half-maximal inhibition (IC50) is 13 µM.

Take `O=C(OCCNc1nc(-c2ccccc2)nc2ccccc12)c1ccncc1`: the IC50 is > 80 µM (inactive).

With `O=C(CCCOc1ccc(Cl)cc1Cl)NNC(=O)c1ccc(NC(=O)c2ccccc2)cc1`, the IC50 was 0.7 µM.

Consider `CCOC(=O)c1cc(-c2ccc(N3CCOCC3)cc2)nn1-c1ccccc1C(=O)O`, for which the half-inhibitory concentration (IC50) is 5.89 µM.

For `Cc1c(CCC(=O)O)c(=O)oc2c(C)c3occ(-c4ccc(Cl)cc4)c3cc12`, the half-maximal inhibitory concentration (IC50) was 5.41 µM.

For the molecule `c1ccc(-c2cc(N3CCCCC3)c3ccccc3n2)cc1`, the IC50 was > 80 µM (inactive).

Regarding `C/C(=N\NC(=O)c1ccc(OC2OCCOC2Oc2ccc(C(=O)N/N=C(\C)c3ccncc3)cc2)cc1)c1ccncc1` (stereo unspecified), the half-inhibitory concentration (IC50) is 6.01 µM.

As for `CC(C)OCCCNc1nc(-c2ccccc2)nc2ccccc12`, the IC50 result is “inactive”.

Turning to `Cc1cc(N2CCN(S(=O)(=O)c3ccc(Cl)c(Cl)c3)CC2)c2ccccc2n1`, the IC50 result was “inactive”.

On to `CC1C(=O)N(Cc2cn(Cc3ccco3)nn2)CCS(=O)(=O)N1Cc1ccc(-c2cccnc2)cc1` (stereo unspecified), for which the IC50 was 0.91 µM.

`CCCCC(=O)Nc1ccc(C(=O)NNC(=O)c2ccc(C)c(Br)c2)cc1`: the IC50 was 3.82 µM.

For `CCc1nc(N)nc(N)c1-c1ccc(NCCN)c([N+](=O)[O-])c1`, the IC50 was 10.8 µM.

`NS(=O)(=O)c1ccc(CNC(=O)Cc2cccs2)cc1`: the IC50 was 1.4 µM.

`O=C(N/N=C/c1ccc(OC(=O)c2cccs2)cc1)c1cccc(F)c1`: the IC50 is 5.57 µM.

On to `COc1ccc(Nc2nc(=O)c3cc([N+](=O)[O-])ccc3s2)cc1`, for which the 50% inhibitory concentration (IC50) was 3.92 µM.

`CCN(c1ccccc1)S(=O)(=O)c1cc(C(=O)O)ccc1C`: the IC50 was 2.05 µM.

`COc1cccc(CNc2nc(NCC3CC3)nc3ccsc23)c1OC`: the IC50 is 14.3 µM.

`O=C(N/N=C\C=C\c1ccc(Br)cc1)c1ccc2c(c1)OCO2`: the IC50 was 1.63 µM.

As for `CC(=O)Nc1ccc(S(=O)(=O)N2CCN(c3nc(NC4CCCC4)c4ccccc4n3)CC2)cc1`, the half-inhibitory concentration (IC50) is 12.1 µM.

With `CN(C)c1nc(N)nc(/C(C#N)=C/C2CC3C=CC2C3)n1` (stereo unspecified), the IC50 was > 80 µM (inactive).

Turning to `NC(=O)Cc1ccc(C(=O)CSc2nnc(-c3ccncc3)n2C2CC2)s1`, the IC50 is 1.49 µM.

As for `Nc1nc(N)c(Cc2ccc(Cl)cc2Cl)c(N)n1`, the IC50 entry was “inactive”.

Turning to `CCOc1cc(/C=N/N=C2/NC(=O)C(CC(=O)O)S2)ccc1OCc1ccc(Cl)cc1Cl` (stereo unspecified), the IC50 was 3.31 µM.

Turning to `c1ccc(-c2cc(NCCN3CCCCC3)c3ccccc3n2)cc1`, the IC50 is 12.5 µM.

Take `CCOC(=O)Cn1c(=NC(=O)c2sc3ccccc3c2Cl)sc2cc(S(N)(=O)=O)ccc21`: the IC50 was 0.4 µM.

As for `CNc1nc(NC)c2cn[nH]c2n1`, the IC50 is > 80 µM (inactive).

With `Cc1ccc(-c2nc(NC(=O)CSc3cc(C)c4ccccc4n3)ns2)cc1`, the IC50 is 1.27 µM.

Take `Cc1nc(N)nc(N)c1-c1ccc([N+](=O)[O-])cc1`: the IC50 was > 80 µM (inactive).

Regarding `COc1cccc2c1[C@@H]1CN(CCCCn3c(=O)[nH]c4c(sc5ncc(-c6ccccc6)nc54)c3=O)C[C@@H]1CO2`, the IC50 is 2.41 µM.

Turning to `O=C(OCCNc1nc(-c2ccccc2)nc2ccccc12)c1cccnc1`, the IC50 was > 80 µM (inactive).

Take `O=c1cc(-c2cc3ccccc3o2)c2cc(O)ccc2o1`: the concentration for half-maximal inhibition (IC50) was 5.57 µM.

For `O=C(/C=C/c1ccc(Br)cc1)NC(=O)c1ccccc1O`, the half-inhibitory concentration (IC50) is 10.5 µM.

Consider `O=C(NNC(=O)c1cc2cc3ccccc3nc2s1)c1cccc(Cl)c1`, for which the IC50 was 2.01 µM.

Take `CCOC(=O)C1=C(C)N=c2sc(=Cc3ccc(OCC(=O)O)cc3)c(=O)n2C1c1ccc(SC)cc1` (stereo unspecified): the IC50 was 1.83 µM.

For `N=c1c(C(=O)NCc2ccc3c(c2)OCO3)cc2c(=O)n3ccccc3nc2n1Cc1cccnc1`, the IC50 was 12.4 µM.

For `CCOC(=O)C1=C(C)N=c2sc(=Cc3ccc(OCC(=O)O)cc3)c(=O)n2C1c1ccc(Cl)cc1` (stereo unspecified), the IC50 was 2.63 µM.

With `O=C(/C=C/c1ccccc1Cl)Nc1ccc2c(c1)C(=O)NC2=O`, the half-inhibitory concentration (IC50) was 2.29 µM.

On to `NS(=O)(=O)c1ccc(CCNC(=O)c2ccc3nccnc3c2)cc1`, for which the IC50 entry is “inactive”.

On to `COc1ccccc1CNc1nc(NCc2ccc(NC(C)=O)cc2)c2sccc2n1`, for which the IC50 was 5.64 µM.

For the molecule `Cc1cccc(-c2nc(NCCCN3CCOCC3)c3ccccc3n2)c1`, the IC50 was > 80 µM (inactive).

As for `Cc1ccc(-c2nc(NCc3cccnc3)c3ccccc3n2)cc1`, the IC50 result was “inactive”.

Take `COc1ccc(-c2ccc(/C=N/NC(=O)c3cccnc3)o2)c([N+](=O)[O-])c1`: the IC50 was 9.62 µM.

Take `COCCNc1nc(NCc2cccc(OC)c2OC)c2sccc2n1`: the IC50 result is “inactive”.

On to `CCc1nc(N)nc(N)c1-c1ccc(Cl)cc1`, for which the IC50 is > 80 µM (inactive).

`Cc1cccc2nc(-c3ccccc3)nc(N[C@@H](CO)c3ccccc3)c12`: the IC50 is > 80 µM (inactive).

Take `COc1ccc(Nc2nc(NCc3cccs3)nc3ccsc23)cc1OC`: the IC50 was 12.4 µM.

As to `Cc1cc(N2CCC(C)CC2)nc2cccc(O)c12`, the IC50 is 19.5 µM.

As to `O=C(COc1ccc(/C=N/NC(=O)c2ccc(O)cc2)cc1)Nc1cccc([N+](=O)[O-])c1`, the IC50 is 5.71 µM.

Consider `Cc1cc2oc(=O)cc(-c3cc4ccccc4o3)c2cc1O`, for which the half-maximal inhibitory concentration (IC50) is 2.9 µM.

As to `O=C(Nc1ccc2oc(-c3ccccc3F)nc2c1)c1ccc([N+](=O)[O-])o1`, the IC50 was 1.59 µM.

Turning to `CN1/C(=C/C=C/c2n(C)c3cc([N+](=O)[O-])c([N+](=O)[O-])cc3[n+]2C)C(C)(C)c2ccccc21`, the IC50 entry was “inactive”.

For `Fc1ccccc1-c1nc(NC2CCCC2)c2ccccc2n1`, the IC50 entry is “inactive”.

Regarding `Cc1c(CCC(=O)O)c(=O)oc2c(C)c(OCc3ccccc3Cl)ccc12`, the IC50 entry was “inactive”.

Regarding `CC(Nc1nc(N2CCNCC2)nc2ccccc12)c1ccccc1` (stereo unspecified), the half-maximal inhibitory concentration (IC50) was 1.38 µM.

As for `O=C(N/N=C/c1ccc(Br)s1)c1cccc([N+](=O)[O-])c1`, the IC50 is 1.97 µM.

Broadly, the IC50 is the concentration that inhibits the measured activity by half.

The values are drawn from PubChem BioAssay AID686961 (Sanford-Burnham Center for Chemical Genomics, 2013).
